Experimental data: PubChem BioAssay AID330 (DTP/NCI, 2004)
Where “and” joins values, the source holds several entries; their conditions need not be identical. Equal entries are not always repeated. Inconclusive results and toxic doses are left out. The calls were made as follows: active = survival T/C of 150% or more; inactive = T/C below 125% in these data.

System: P388 leukemia ip, CD2F1 mice, survival T/C
Assay: NCI In Vivo Anticancer Drug Screen. Data for tumor model P388 Leukemia (intraperitoneal) in CD2F1 (CDF1) mice
Settings: endpoint: median survival time, higher = longer survival
Method in brief: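 Mice carrying the transplanted tumor received test compound or vehicle. Survival was recorded in each group, and the value is the treated-group measurement divided by that of the vehicle-treated control group.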

[1] = dose: 100.0 mg/kg/injection, schedule: Q01DX009 (ip), vehicle: saline
[2] = dose: 200.0 mg/kg/injection, schedule: Q01DX009 (ip), vehicle: saline
[3] = dose: 400.0 mg/kg/injection, schedule: Q01DX009 (ip), vehicle: saline
[4] = dose: 50.0 mg/kg/injection, schedule: Q01DX009 (ip), vehicle: saline with Tween-80
[5] = dose: 100.0 mg/kg/injection, schedule: Q01DX009 (ip), vehicle: saline with Tween-80
[6] = dose: 200.0 mg/kg/injection, schedule: Q01DX009 (ip), vehicle: saline with Tween-80
[7] = dose: 25.0 mg/kg/injection, schedule: Q01DX005 (ip), vehicle: Klucel (hydroxypropylcellulose) (HPC)
[8] = dose: 50.0 mg/kg/injection, schedule: Q01DX005 (ip), vehicle: Klucel (hydroxypropylcellulose) (HPC)
[9] = dose: 100.0 mg/kg/injection, schedule: Q01DX005 (ip), vehicle: Klucel (hydroxypropylcellulose) (HPC)
[10] = dose: 200.0 mg/kg/injection, schedule: Q01DX005 (ip), vehicle: Klucel (hydroxypropylcellulose) (HPC)

Measured: T/C

[Cu+2].[NH-]CC(=O)NC(Cc1ccccc1)C(=O)O.[NH-]CC(=O)NC(Cc1ccccc1)C(=O)O (centres undefined)
inactive: dose: 12.5 mg/kg/injection, schedule: Q04DX003 (ip), vehicle: saline 93 % of control | dose: 25.0 mg/kg/injection, schedule: Q04DX003 (ip), vehicle: saline 90 % of control | dose: 50.0 mg/kg/injection, schedule: Q04DX003 (ip), vehicle: saline 100 % of control

CCCCNC(=O)Nc1cccc2c(O)cccc12
inactive: dose: 6.25 mg/kg/injection, schedule: Q01DX009 (ip), vehicle: DMSO 94 % of control | dose: 12.5 mg/kg/injection, schedule: Q01DX009 (ip), vehicle: DMSO 87 % of control | dose: 25.0 mg/kg/injection, schedule: Q01DX009 (ip), vehicle: DMSO 87 % of control

O=[N+]([O-])/C(=C/c1ccccc1)c1ccccc1
inactive: dose: 6.25 mg/kg/injection, schedule: Q01DX009 (ip), vehicle: saline with Tween-80 109 % of control | dose: 6.25 mg/kg/injection, schedule: Q04DX003 (ip), vehicle: saline with Tween-80 109 % of control | dose: 12.5 mg/kg/injection, schedule: Q01DX009 (ip), vehicle: saline with Tween-80 118 % of control | dose: 12.5 mg/kg/injection, schedule: Q04DX003 (ip), vehicle: saline with Tween-80 100 % of control | dose: 25.0 mg/kg/injection, schedule: Q01DX009 (ip), vehicle: saline with Tween-80 118 % of control | dose: 25.0 mg/kg/injection, schedule: Q04DX003 (ip), vehicle: saline with Tween-80 113 % of control

CCCCCCCCSC1=CC(=O)C(OC)=C(OC)C1=O
inactive: dose: 4.0 mg/kg/injection, schedule: Q01DX009 (ip), vehicle: Klucel (hydroxypropylcellulose) (HPC) 92 % of control | dose: 8.0 mg/kg/injection, schedule: Q01DX009 (ip), vehicle: Klucel (hydroxypropylcellulose) (HPC) 95 % of control

CC(C)(C)OC(=O)NCC(=O)NNC(=O)OC(C)(C)C
inactive: [1] 118 % of control | [2] 118 % of control | [3] 118 % of control

CCN1CNC(=O)NC1
inactive: dose: 50.0 mg/kg/injection, schedule: Q01DX009 (ip), vehicle: saline 112 % of control | [1] 111 % of control | [2] 100 % of control | [3] 118 % of control

C/C=C1/CN2CCc3c4n(c5ccccc35)[C@H](C(=O)OC)[C@H]1C[C@@H]42
inactive: dose: 12.5 mg/kg/injection, schedule: Q01DX005 (ip), vehicle: acid diluted with saline 107 % of control | dose: 25.0 mg/kg/injection, schedule: Q01DX005 (ip), vehicle: acid diluted with saline 94 % of control | dose: 50.0 mg/kg/injection, schedule: Q01DX005 (ip), vehicle: acid diluted with saline 98 % of control | dose: 100.0 mg/kg/injection, schedule: Q01DX005 (ip), vehicle: acid diluted with saline 100 % of control

CCCC(NC(=O)C(F)(F)F)C(=O)O (centres undefined)
inactive: [4] 91 % of control | [5] 93 % of control | [6] 106 % of control

Oc1ccc(C(c2ccc(O)cc2)C(c2ccc(O)cc2)c2ccc(O)cc2)cc1
inactive: [4] 107 % of control | [5] 100 % of control | [6] 113 % of control

Clc1ccc2c(c1)nc(-c1ccccn1)n2CCc1ccncc1
inactive: [7] 100 % of control | [8] 95 % of control | [9] 99 % of control | [10] 99 % of control

NC(=NCc1ccccc1)c1ccc(N=C(N)c2ccc(C(N)=Nc3ccc(C(N)=NCc4ccccc4)cc3)cc2)cc1
inactive: dose: 5.0 mg/kg/injection, schedule: Q01DX009 (ip), vehicle: saline sonified 118 % of control | dose: 6.6 mg/kg/injection, schedule: Q01DX009 (ip), vehicle: saline 109 % of control | dose: 10.0 mg/kg/injection, schedule: Q01DX009 (ip), vehicle: saline 122 % of control | dose: 10.0 mg/kg/injection, schedule: Q04DX003 (ip), vehicle: saline with Tween-80 104 % of control | dose: 20.0 mg/kg/injection, schedule: Q04DX003 (ip), vehicle: saline with Tween-80 95 % of control

Nc1nc(Br)c2[nH]cnc2n1
inactive: [5] 110 % of control | dose: 100.0 mg/kg/injection, schedule: Q04DX003 (ip), vehicle: saline with Tween-80 118 % of control | [6] 120 % of control | dose: 200.0 mg/kg/injection, schedule: Q04DX003 (ip), vehicle: saline with Tween-80 113 % of control | dose: 400.0 mg/kg/injection, schedule: Q01DX009 (ip), vehicle: saline with Tween-80 90 % of control | dose: 400.0 mg/kg/injection, schedule: Q04DX003 (ip), vehicle: saline with Tween-80 109 % of control

O=S(=O)(O)CCCOC1COc2ccccc2OCCOCCOc2ccccc2OC1
inactive: dose: 50.0 mg/kg/injection, schedule: Q01DX005 (ip), vehicle: saline 99 % of control | dose: 100.0 mg/kg/injection, schedule: Q01DX005 (ip), vehicle: saline 101 % of control | dose: 200.0 mg/kg/injection, schedule: Q01DX005 (ip), vehicle: saline 98 % of control

COc1cc2cc3cc(-c4ccc(Cl)cc4)c(N4CCN(C)CC4)nc3nc2cc1OC
inactive: dose: 60.0 mg/kg/injection, schedule: Q01DX005 (ip), vehicle: saline with Tween-80 94 % of control | dose: 120.0 mg/kg/injection, schedule: Q01DX005 (ip), vehicle: saline with Tween-80 101 % of control | dose: 240.0 mg/kg/injection, schedule: Q01DX005 (ip), vehicle: saline with Tween-80 111 % of control

O=C(O)C1CC(c2ccccc2)=NN1c1ccccc1 (centres undefined)
inactive: dose: 12.5 mg/kg/injection, schedule: Q01DX009 (ip), vehicle: water 99 % of control | dose: 25.0 mg/kg/injection, schedule: Q01DX009 (ip), vehicle: water 98 % of control | dose: 50.0 mg/kg/injection, schedule: Q01DX009 (ip), vehicle: water 103 % of control | dose: 88.0 mg/kg/injection, schedule: Q01DX009 (ip), vehicle: water 112 % of control and 120 % of control | dose: 100.0 mg/kg/injection, schedule: Q01DX009 (ip), vehicle: water 109 % of control | dose: 133.0 mg/kg/injection, schedule: Q01DX009 (ip), vehicle: water 119 % of control and 124 % of control | dose: 200.0 mg/kg/injection, schedule: Q01DX009 (ip), vehicle: water 123 % of control | dose: 300.0 mg/kg/injection, schedule: Q01DX009 (ip), vehicle: water 122 % of control

CC(=O)OCCC/C(=C\c1c2ccccc2cc2ccccc12)[N+](=O)[O-]
inactive: dose: 60.0 mg/kg/injection, schedule: Q01DX005 (ip), vehicle: suspension in saline 100 % of control | dose: 120.0 mg/kg/injection, schedule: Q01DX005 (ip), vehicle: suspension in saline 102 % of control | dose: 240.0 mg/kg/injection, schedule: Q01DX005 (ip), vehicle: suspension in saline 97 % of control

Cc1nc2ncn(-c3ccccc3)c2c(=O)n1Cc1ccccc1
inactive: [8] 105 % of control | [9] 105 % of control | [10] 105 % of control

Cc1ccc(-c2cc(=O)c3cc(C)c(C)c(C#N)c3o2)cc1
inactive: dose: 15.0 mg/kg/injection, schedule: Q01DX005 (ip), vehicle: Klucel (hydroxypropylcellulose) (HPC) 94 % of control | dose: 30.0 mg/kg/injection, schedule: Q01DX005 (ip), vehicle: Klucel (hydroxypropylcellulose) (HPC) 87 % of control and 90 % of control | dose: 60.0 mg/kg/injection, schedule: Q01DX005 (ip), vehicle: Klucel (hydroxypropylcellulose) (HPC) 90 % of control | dose: 120.0 mg/kg/injection, schedule: Q01DX005 (ip), vehicle: Klucel (hydroxypropylcellulose) (HPC) 86 % of control and 88 % of control | dose: 240.0 mg/kg/injection, schedule: Q01DX005 (ip), vehicle: Klucel (hydroxypropylcellulose) (HPC) 96 % of control

Cc1ccc(C2=C3CCCCC3c3cc(C)ccc32)cc1 (centres undefined)
inactive: [7] 91 % of control | [8] 97 % of control | [9] 90 % of control | [10] 90 % of control

O=C(C=C(C(F)(F)F)C(F)(F)F)c1ccccc1[N+](=O)[O-]
inactive: dose: 1.32 mg/kg/injection, schedule: Q04DX003 (ip), vehicle: other 109 % of control | dose: 2.0 mg/kg/injection, schedule: Q04DX003 (ip), vehicle: other 100 % of control | dose: 3.0 mg/kg/injection, schedule: Q04DX003 (ip), vehicle: other 109 % of control | dose: 4.5 mg/kg/injection, schedule: Q04DX003 (ip), vehicle: other 104 % of control | dose: 6.25 mg/kg/injection, schedule: Q04DX003 (ip), vehicle: other 109 % of control | dose: 25.0 mg/kg/injection, schedule: Q04DX003 (ip), vehicle: other 86 % of control

O=c1c2ccccc2n(-c2ccccc2)c2ccccc12
inactive: [8] 100 % of control | [9] 100 % of control | [10] 99 % of control
